Results from patent publication US20250073338A1, “CONJUGATE COMPOUNDS AND COMPOSITIONS” (REZUBIO PHARMACEUTICALS CO., LTD, priority 2023, published 2025).
Where a name gives a salt, the structure may show the parent alone.

Tests used:
[1] = Pharmacokinetics in mice (IV and PO), plasma LC-MS/MS; format: in vivo, Male ICR (CD-1) mice
Protocol: Male ICR (CD-1) mice at around 4-6 weeks with body weight of around 25 grams (n=3) were purchased from VT-River (Zhejiang, China). After 1-week acclimation, animals were dosed with exemplary compounds intravenously at 1 mpk or orally at 10 mpk (0.5% methylcellulose in PBS as vehicle for both routes of administration). Blood samples (30 μL) were collected via saphenous vein puncture at 5 (IV only), 15, 30, 60, 120, 240, 480, and 1440 min post dose. The blood samples were saved in 0.5 M K2EDTA coated tubes and centrifuged at 4,600 rpm at 4° C. for 5 min. Plasma samples were collected and stored in −80° C. till PK analysis.
Take 10 μL of K2EDTA-treated plasma samples of CD-1 mice, add 200 μL of precipitation solution with internal standard (5 ng/mL Terfenadine in MeOH/ACN), mix well by vortexing for 1 min at room temperature followed by centrifuge at 4° C. and 4000 rpm for 15 min. Save the supernatant as injection for LC-MS/MS quantification of exemplary compounds in plasma samples of mice.
Establish a standard curve before and after each analytical batch, accompanied by quality controls of low, medium, and high concentrations. The number of quality control samples is not less than 6 and should be equal to or more than the number of samples of each batch, and interspersed in sample measurement. Standard curve and quality control samples of each batch must meet the acceptance criteria.

GPR40 = molecular target: T1, GPR40 (Homo sapiens, UniProt O14842); assay: IP1 accumulation assay in HEK293 cells stably expressing GPR40; format: cell-based; conditions: HEK293 cells stably expressing GPR40, 2 hours at 37° C.
T1 construct: expressed in transfected cells
T1 sequence (O14842 whole entry): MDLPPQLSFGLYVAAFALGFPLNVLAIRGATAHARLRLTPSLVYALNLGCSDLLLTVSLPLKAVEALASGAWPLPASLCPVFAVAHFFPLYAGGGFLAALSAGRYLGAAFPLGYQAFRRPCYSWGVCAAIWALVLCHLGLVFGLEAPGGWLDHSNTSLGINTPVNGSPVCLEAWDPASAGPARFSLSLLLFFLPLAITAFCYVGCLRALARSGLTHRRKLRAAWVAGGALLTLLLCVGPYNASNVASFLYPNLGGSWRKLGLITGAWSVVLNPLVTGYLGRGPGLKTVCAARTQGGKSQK
Protocol: IP1 accumulation assay was used to evaluate the potency of compounds. HEK293 cells stably expressing GPR40 were cultured in 5% CO2 incubator (ThermoFisher) in maintenance media (Dulbecco's modified Eagle's medium with 4.5 g/L of glucose, 10% fetal bovine serum, 100 μg/mL Hygromycin, and Penicillin (100 U/mL)/Streptomycin (100 μg/mL)) till 100% confluency. Cells were harvested freshly, spun down at 300× g for 5 min, and resuspended in pre-warmed 1× stimulant buffer from Cisbio IP-One HTRF Detection kit (Cisbio). Cell density was adjusted to 2.0×10^6 cells/mL. DMSO was used as blank control and AMG-1638 (CAS #: 1142214-62-7) as positive control. Compounds were prepared at 10 mM in DMSO and 5 nL of 3× serially diluted compounds (10 concentrations) were added to each well of the 384-LDV assay plate (Corning) by using ECHO 550 (Labcyte). Five μL of cells in suspension were transferred into each well by using Multidrop Combi Reagent Dispenser (ThermoFisher). Assay plate was then sealed and incubated at 37° C. for 2 hours. IP-d2 reagent and anti-IP1 reagent were prepared following the manual (Cisbio). Five μL of IP1-d2 and then 5 μL of anti-IP1 antibody was added to each well sequentially. Assay plate was incubated at room temperature for 60 min and then read at 665 nm/615 nm on an Envision plate reader (PerkinElmer). The ratio of values obtained at 665 nm and 615 nm was used for calculation of IP1 accumulation: % Effect=(Ratiosample−Ratioblank)/(RatioAMG-1638−Ratioblank)×100. Dose curve was fitted and EC50 of each compound was calculated by using XLFit.

[2] = male, ICR (CD-1), mouse, plasma, 10 mg/kg, PO (10 mpk)

Row | EC50 (GPR40) [nM] | SMILES | further results
1 | 0.63 | COc1ccc(C(=O)N(CC(C)(C)CCCCCCCCCCCCCCCCCCCC(=O)NCCC[N+](C)(CC(=O)[O-])CC(=O)O)c2cccc(C)n2)c(N2CCC(COc3cc([C@@H](CC(=O)O)C4CC4)ccn3)CC2)c1 (some centres unmarked) [Example 14] | Cl ([1]; IV (1 mpk)): 0.20 ml/mL/kg; AUC ([1]; male, ICR (CD-1), mouse, plasma, 1 mg/kg, IV (1 mpk)): 68 µM·h; half-life ([1]; male, ICR (CD-1), mouse, plasma, 1 mg/kg, IV (1 mpk), read-out: T½ (converted)): 6.7 h; Vd ([1]; male, ICR (CD-1), mouse, plasma, 1 mg/kg, IV (1 mpk), read-out: Vss): 0.09 L/kg; Cmax [1, 2]: 164 nM; Tmax [1, 2]: 8 h; bioavailability ([1]; male, ICR (CD-1), mouse, plasma, 10 mg/kg, PO (10 mpk), oral bioavailability): 0.37%
2 | 2 | COc1ccc(C(=O)N(CC(C)(C)CCCCCCCCCCCCCCCCCCCC(=O)NCCN(CC(=O)NCCN)CC(=O)NCCN)c2cccc(C)n2)c(N2CCC(COc3cc([C@@H](CC(=O)O)C4CC4)ccn3)CC2)c1 [Example 2] | 
3 | 1.15 | COc1ccc(C(=O)N(CC(C)(C)CCCCCCCCCCCCCCCCCC[N+]2(C)CCN(C)CC2)c2cccc(C)n2)c(N2CCC(COc3cc([C@@H](CC(=O)O)C4CC4)ccn3)CC2)c1 [Example 24] | 
4 | 0.49 | COc1ccc(C(=O)N(CC(C)(C)CCCCCCCCCCCCCCCCCC(=O)NCCCC[N+]23CCN(CC2)CC3)c2cccc(C)n2)c(N2CCC(COc3cc([C@@H](CC(=O)O)C4CC4)ccn3)CC2)c1 [Example 28] | 
5 | > 152 | COc1ccc(C(=O)N(CC(C)(C)CCn2cc(CCCCCCCCCCCCCCCCCC(=O)O)nn2)c2cccc(C)n2)c(N2CCC(COc3cc([C@@H](CC(=O)O)C4CC4)ccn3)CC2)c1 [Example 33] | 
6 | 1.23 | COc1ccc(C(=O)N(CC(C)(C)CCCCCCCCCCCCCCCCCCCC(=O)NCCN(CCC(=O)NCCN)CCC(=O)NCCN)c2cccc(C)n2)c(N2CCC(COc3cc([C@@H](CC(=O)O)C4CC4)ccn3)CC2)c1 [Example 1] | 
7 | 0.78 | COc1ccc(C(=O)N(CC(C)(C)CCCCCCCCCCCCCCCCCC(=O)NCCC[N+](C)(C)CCCS(=O)(=O)[O-])c2cccc(C)n2)c(N2CCC(COc3cc([C@@H](CC(=O)O)C4CC4)ccn3)CC2)c1 [Example 36] | 
8 | 0.71 | COc1ccc(C(=O)N(CC(C)(C)CCn2cc(CCCCCCCCCCCCCCCCCC(=O)NCCNC(=O)C(CCCCN(CCCN)CCCN)NCCCN)nn2)c2cccc(C)n2)c(N2CCC(COc3cc([C@@H](CC(=O)O)C4CC4)ccn3)CC2)c1 (some centres unmarked) [Example 27] | 
9 | 3.65 | COc1ccc(C(=O)N(CC(C)(C)CCCCCCCCCCCCCCCCCCCCC(=O)NCC[N+](C)(CC(=O)NCCN)CC(=O)NCCN)c2cccc(C)n2)c(N2CCC(COc3cc([C@@H](CC(=O)O)C4CC4)ccn3)CC2)c1 [Example 10] | 
10 | 0.63 | COc1ccc(C(=O)N(CC(C)(C)CCCCCCCCCCCCCCCCCC(=O)NCCC[N+](C)(CC(=O)[O-])CC(=O)O)c2cccc(C)n2)c(N2CCC(COc3cc([C@@H](CC(=O)O)C4CC4)ccn3)CC2)c1 (some centres unmarked) [Example 35] | 
11 | 0.35 | COc1ccc(C(=O)N(CC(C)(C)CCCCCCCCCCCCCCCCCCCC(=O)NCC[N+](C)(CCCC(=O)NCCN)CCCC(=O)NCCN)c2cccc(C)n2)c(N2CCC(COc3cc([C@@H](CC(=O)O)C4CC4)ccn3)CC2)c1 [Example 9] | 
12 | 0.67 | COc1ccc(C(=O)N(CC(C)(C)CCCCCCCCCCCCCCCCCCCC(=O)NCCCN(C)CC(=O)NCCN)c2cccc(C)n2)c(N2CCC(COc3cc([C@@H](CC(=O)O)C4CC4)ccn3)CC2)c1 [Example 15] | 
13 | 1.73 | COc1ccc(C(=O)N(CC(C)(C)CCCCCCCCCCCCCCCCCCCC(=O)NCCCN(CC(=O)NCCN)CC(=O)NCCN)c2cccc(C)n2)c(N2CCC(COc3cc([C@@H](CC(=O)O)C4CC4)ccn3)CC2)c1 [Example 5] | 
14 | 0.53 | COc1ccc(C(=O)N(CC(C)(C)CCCCCCCCCCCCCCCCCC(=O)NCC[N+](C)(CC(=O)NCCN)CC(=O)NCCN)c2cccc(C)n2)c(N2CCC(COc3cc([C@@H](CC(=O)O)C4CC4)ccn3)CC2)c1 [Example 7] | 
15 | 0.28 | COc1ccc(C(=O)N(CC(C)(C)CCCCCCCCCCCCCCCCCCCC(=O)NCCN(CCCC(=O)NCCN)CCCC(=O)NCCN)c2cccc(C)n2)c(N2CCC(COc3cc([C@@H](CC(=O)O)C4CC4)ccn3)CC2)c1 [Example 8] | 
16 | 163 | COc1ccc(C(=O)N(CC(C)(C)CCCCCCCCCCCCCCCCCC(=O)NCc2ccccc2)c2cccc(C)n2)c(N2CCC(COc3cc([C@@H](CC(=O)O)C4CC4)ccn3)CC2)c1 [Example 31] | 
17 | 1.79 | COc1ccc(C(=O)N(CC(C)(C)CCCCCCCCCCCCCCCCCCCC(=O)NCC[N+](C)(CCC(=O)NCCN)CCC(=O)NCCN)c2cccc(C)n2)c(N2CCC(COc3cc([C@@H](CC(=O)O)C4CC4)ccn3)CC2)c1 [Example 3] | 
18 | 0.36 | COc1ccc(C(=O)N(CC(C)(C)CCCCCCCCCCCCCCCCCC[N+]23CCN(CC2)CC3)c2cccc(C)n2)c(N2CCC(COc3cc([C@@H](CC(=O)O)C4CC4)ccn3)CC2)c1 [Example 22] | 
19 | 0.32 | COc1ccc(C(=O)N(CC(C)(C)CCCCCCCCCCCCCCCCCC(=O)NCCCC[N+](C)(C)C)c2cccc(C)n2)c(N2CCC(COc3cc([C@@H](CC(=O)O)C4CC4)ccn3)CC2)c1 [Example 29] | 
20 | 0.48 | COc1ccc(C(=O)N(CC(C)(C)CCCCCCCCCCCCCCCCCCCC(=O)NCCC[N+](C)(C)CC(=O)NCCN)c2cccc(C)n2)c(N2CCC(COc3cc([C@@H](CC(=O)O)C4CC4)ccn3)CC2)c1 [Example 16] | 
21 | 0.43 | CC[N+](CC)(CC)CCCCNC(=O)CCCCCCCCCCCCCCCCCC(C)(C)CN(C(=O)c1ccc(OC)cc1N1CCC(COc2cc([C@@H](CC(=O)O)C3CC3)ccn2)CC1)c1cccc(C)n1 [Example 30] | 
22 | 0.84 | COc1ccc(C(=O)N(CC(C)(C)CCCCCCCCCCCCCCCCCCCC(=O)NCCC[N+](C)(CC(=O)NCCN)CC(=O)NCCN)c2cccc(C)n2)c(N2CCC(COc3cc([C@@H](CC(=O)O)C4CC4)ccn3)CC2)c1 [Example 6] | 
23 | 0.36 | CC[N+](CC)(CC)CCCCCCCCCCCCCCCCCCC(C)(C)CN(C(=O)c1ccc(OC)cc1N1CCC(COc2cc([C@@H](CC(=O)O)C3CC3)ccn2)CC1)c1cccc(C)n1 [Example 26] | 
24 | 385 | CCCCNC(=O)CCCCCCCCCCCCCCCCCC(C)(C)CN(C(=O)c1ccc(OC)cc1N1CCC(COc2cc([C@@H](CC(=O)O)C3CC3)ccn2)CC1)c1cccc(C)n1 [Example 32] | 
25 | 1.34 | COc1ccc(C(=O)N(CC(C)(C)CCCCCCCCCCCCCCCCCCCCCC(=O)NCC[N+](C)(CC(=O)NCCN)CC(=O)NCCN)c2cccc(C)n2)c(N2CCC(COc3cc([C@@H](CC(=O)O)C4CC4)ccn3)CC2)c1 [Example 11, (S)-2-((2-aminoethyl)amino)-N-(2-((2-aminoethyl)amino)-2-oxoethyl)-N-(2-(24-(2-(4-(((4-(2-carboxy-1-cyclopropylethyl)pyridin-2-yl)oxy)methyl)piperidin-1-yl)-4-methoxy-N-(6-methylpyridin-2-yl)benzamido)-23,23-dimethyltetracosanamido)ethyl)-N-methyl-2-oxoethanaminium trifluoroacetate] | 
26 | 0.45 | COc1ccc(C(=O)N(CC(C)(C)CCCCCCCCCCCCCCCCCC[N+](C)(C)C)c2cccc(C)n2)c(N2CCC(COc3cc([C@@H](CC(=O)O)C4CC4)ccn3)CC2)c1 [Example 25] | 
27 | 3.57 | C[C@H](C(=O)O)[C@H](c1ccc2c(c1)O[C@@H](C1CCN(Cc3cc(CCCCCCCCCCCCCCCCCCCC(=O)NCCC[N+](C)(CC(=O)NCCN)CC(=O)NCCN)ccc3OC(F)(F)F)CC1)CC2)C1CC1 [Example 20] | 

Row | SMILES | EC50 (GPR40) [nM] | further results
28 | COc1ccc(C(=O)N(CC(C)(C)CCCCCCCCCCCCCCCCCCNC(=O)C[N+]23CCN(CC2)CC3)c2cccc(C)n2)c(N2CCC(COc3cc([C@@H](CC(=O)O)C4CC4)ccn3)CC2)c1 [Example 23, (S)-1-(2-((20-(2-(4-(((4-(2-carboxy-1-cyclopropylethyl)pyridin-2-yl)oxy)methyl)piperidin-1-yl)-4-methoxy-N-(6-methylpyridin-2-yl)benzamido)-19,19-dimethylicosyl)amino)-2-oxoethyl)-1,4-diazabicyclo[2.2.2]octan-1-ium trifluoroacetate] | 2.8 | 
